Measured values taken from PubChem BioAssay AID248 (DTP/NCI, 2004).
“And” between values parts separate entries of the source, which are not always exact repeats. Equal values may be shown once. Toxic doses and inconclusive results are not listed. Rule as the data show it: active = T/C of 150% or more; inactive = T/C below 125%.

Test system: L1210 leukemia ip in BDF1 mice, survival T/C
Test: NCI In Vivo Anticancer Drug Screen. Data for tumor model L1210 Leukemia (intraperitoneal) in B6D2F1 (BDF1) mice
Details: endpoint: mean survival time, higher = longer survival
How it was run: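 Antitumor effect is assessed in tumor-bearing animals. Survival in the compound arm is compared with a vehicle-dosed control arm and expressed as their quotient.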

[1] = dose: 100.0 mg/kg/injection, schedule: Q01DX001 (ip), vehicle: saline with Tween-80
[2] = dose: 200.0 mg/kg/injection, schedule: Q01DX001 (ip), vehicle: saline with Tween-80
[3] = dose: 400.0 mg/kg/injection, schedule: Q01DX001 (ip), vehicle: saline with Tween-80
[4] = dose: 50.0 mg/kg/injection, schedule: Q01DX009 (ip), vehicle: Klucel (hydroxypropylcellulose) (HPC)
[5] = dose: 100.0 mg/kg/injection, schedule: Q01DX009 (ip), vehicle: Klucel (hydroxypropylcellulose) (HPC)
[6] = dose: 200.0 mg/kg/injection, schedule: Q01DX009 (ip), vehicle: Klucel (hydroxypropylcellulose) (HPC)
[7] = dose: 100.0 mg/kg/injection, schedule: Q01DX001 (ip), vehicle: saline
[8] = dose: 200.0 mg/kg/injection, schedule: Q01DX001 (ip), vehicle: saline
[9] = dose: 400.0 mg/kg/injection, schedule: Q01DX001 (ip), vehicle: saline
[10] = dose: 100.0 mg/kg/injection, schedule: Q04DX003 (ip), vehicle: Klucel (hydroxypropylcellulose) (HPC)
[11] = dose: 200.0 mg/kg/injection, schedule: Q04DX003 (ip), vehicle: Klucel (hydroxypropylcellulose) (HPC)
[12] = dose: 400.0 mg/kg/injection, schedule: Q04DX003 (ip), vehicle: Klucel (hydroxypropylcellulose) (HPC)
[13] = dose: 100.0 mg/kg/injection, schedule: Q01DX009 (ip), vehicle: saline with Tween-80
[14] = dose: 100.0 mg/kg/injection, schedule: Q04DX002 (ip), vehicle: saline with Tween-80
[15] = dose: 200.0 mg/kg/injection, schedule: Q01DX009 (ip), vehicle: saline with Tween-80
[16] = dose: 200.0 mg/kg/injection, schedule: Q04DX002 (ip), vehicle: saline with Tween-80
[17] = dose: 400.0 mg/kg/injection, schedule: Q04DX002 (ip), vehicle: saline with Tween-80
[18] = dose: 100.0 mg/kg/injection, schedule: Q01DX009 (ip), vehicle: saline
[19] = dose: 200.0 mg/kg/injection, schedule: Q01DX009 (ip), vehicle: saline
[20] = dose: 50.0 mg/kg/injection, schedule: Q01DX001 (ip), vehicle: saline
[21] = dose: 100.0 mg/kg/injection, schedule: Q01DX001 (ip), vehicle: carboxymethylcellulose (CMC)
[22] = dose: 200.0 mg/kg/injection, schedule: Q01DX001 (ip), vehicle: carboxymethylcellulose (CMC)
[23] = dose: 400.0 mg/kg/injection, schedule: Q01DX001 (ip), vehicle: carboxymethylcellulose (CMC)
[24] = dose: 50.0 mg/kg/injection, schedule: Q01DX009 (ip), vehicle: saline with Tween-80
[25] = dose: 400.0 mg/kg/injection, schedule: Q01DX009 (ip), vehicle: saline with Tween-80

Measured: T/C

CCCCCCCC(C(C)=O)C(=O)OCC (stereo unspecified)
inactive: [1] 95 % of control | [2] 103 % of control | [3] 95 % of control

Nc1nc(N)c(CCCCc2ccccc2)c(Cc2ccccc2)n1
inactive: [4] 98 % of control | [5] 106 % of control | [6] 98 % of control

CC(=O)c1cc(-c2ccc(Cl)c(Cl)c2)nc2c(Cl)cc(Cl)cc12
inactive: [7] 104 % of control | [8] 103 % of control | [9] 103 % of control

CC(C)(C)C(=O)CSC/C(=N/O)C(C)(C)C
inactive: [10] 112 % of control | [11] 103 % of control | [12] 99 % of control

COc1ccc(NC(=S)Nc2ccccc2S)cc1
inactive: [13] 90 % of control | [14] 97 % of control | [15] 97 % of control | [16] 97 % of control | [17] 97 % of control

[O-]/[N+](=C\c1ccccc1)C(c1ccccc1)c1ccccc1
inactive: dose: 75.0 mg/kg/injection, schedule: Q04DX003 (ip), vehicle: saline 97 % of control | dose: 150.0 mg/kg/injection, schedule: Q04DX003 (ip), vehicle: saline 96 % of control | dose: 300.0 mg/kg/injection, schedule: Q04DX003 (ip), vehicle: saline 89 % of control

COc1cc(C(O)c2nccc3cc(OC)c(OC)cc23)c([N+](=O)[O-])cc1OC (stereo unspecified)
inactive: dose: 75.0 mg/kg/injection, schedule: Q01DX001 (ip), vehicle: saline 111 % of control | dose: 150.0 mg/kg/injection, schedule: Q01DX001 (ip), vehicle: saline 106 % of control | dose: 300.0 mg/kg/injection, schedule: Q01DX001 (ip), vehicle: saline 101 % of control

COCCOCCOCCOCCOCCN
inactive: [18] 96 % of control | [19] 93 % of control | dose: 400.0 mg/kg/injection, schedule: Q01DX009 (ip), vehicle: saline 98 % of control

CCOC(=O)c1cnc2c(cnn2C(C)C)c1NN
inactive: [10] 99 % of control | [11] 99 % of control | [12] 96 % of control

CC(C)=Cc1ccno1
inactive: [7] 100 % of control | [8] 100 % of control | [9] 100 % of control

Cc1cn(C2OC(CO)C(O)C(O)C2N)c(=O)[nH]c1=O (stereo unspecified)
inactive: [20] 107 % of control | [7] 97 % of control and 103 % of control | [8] 97 % of control and 108 % of control | [9] 103 % of control and 105 % of control

O=C(O)CCCc1ccccc1
inactive: dose: 50.0 mg/kg/injection, schedule: Q01DX001 (ip), vehicle: carboxymethylcellulose (CMC) 94 % of control | [21] 108 % of control | [14] 98 % of control | [22] 96 % of control | [16] 91 % of control | [23] 107 % of control | [17] 109 % of control

CCN(CC)CCCNC(C)CCCN(CC)CC (stereo unspecified)
inactive: dose: 50.0 mg/kg/injection, schedule: Q01DX009 (ip), vehicle: water 106 % of control | dose: 100.0 mg/kg/injection, schedule: Q01DX009 (ip), vehicle: water 97 % of control and 107 % of control | dose: 100.0 mg/kg/injection, schedule: Q04DX003 (ip), vehicle: water 98 % of control | dose: 200.0 mg/kg/injection, schedule: Q01DX009 (ip), vehicle: water 101 % of control and 103 % of control | dose: 200.0 mg/kg/injection, schedule: Q04DX003 (ip), vehicle: water 98 % of control | dose: 400.0 mg/kg/injection, schedule: Q01DX009 (ip), vehicle: water 93 % of control

Cc1cc([N+](=O)[O-])cc(S(=O)(=O)O)c1C
inactive: [24] 102 % of control | [13] 98 % of control and 92 % of control | [15] 98 % of control and 106 % of control | [25] 98 % of control

CN(C(=O)NCCCl)c1cccc2c1CCCC2
inactive: dose: 100.0 mg/kg/injection, schedule: Q01DX001 (ip), vehicle: Klucel (hydroxypropylcellulose) (HPC) 97 % of control | dose: 200.0 mg/kg/injection, schedule: Q01DX001 (ip), vehicle: Klucel (hydroxypropylcellulose) (HPC) 105 % of control | dose: 400.0 mg/kg/injection, schedule: Q01DX001 (ip), vehicle: Klucel (hydroxypropylcellulose) (HPC) 111 % of control

Nc1ccc(Nc2ccc([N+](=O)[O-])cc2)cc1
inactive: dose: 75.0 mg/kg/injection, schedule: Q01DX009 (ip), vehicle: Klucel (hydroxypropylcellulose) (HPC) 91 % of control | dose: 150.0 mg/kg/injection, schedule: Q01DX009 (ip), vehicle: Klucel (hydroxypropylcellulose) (HPC) 105 % of control | dose: 300.0 mg/kg/injection, schedule: Q01DX009 (ip), vehicle: Klucel (hydroxypropylcellulose) (HPC) 100 % of control

O=C(COc1ccccc1)NC(=S)Nc1ccc(C(=O)O)cc1
inactive: [1] 97 % of control | [13] 102 % of control and 89 % of control | [14] 97 % of control and 104 % of control | [2] 95 % of control | [15] 105 % of control and 86 % of control | [16] 114 % of control and 90 % of control | [3] 101 % of control | [25] 97 % of control and 89 % of control | [17] 107 % of control and 90 % of control

CN(C)Cc1c[nH]c2nccnc12
inactive: dose: 25.0 mg/kg/injection, schedule: Q01DX009 (ip), vehicle: saline 102 % of control | dose: 25.0 mg/kg/injection, schedule: Q04DX003 (ip), vehicle: saline 100 % of control | dose: 50.0 mg/kg/injection, schedule: Q01DX009 (ip), vehicle: saline 100 % of control | dose: 50.0 mg/kg/injection, schedule: Q04DX003 (ip), vehicle: saline 105 % of control | [18] 99 % of control and 102 % of control | dose: 100.0 mg/kg/injection, schedule: Q04DX003 (ip), vehicle: saline 100 % of control and 104 % of control | [19] 99 % of control

COCN1CCN(COC)C1=O
inactive: dose: 100.0 mg/kg/injection, schedule: Q04DX002 (ip), vehicle: saline 105 % of control | dose: 200.0 mg/kg/injection, schedule: Q04DX002 (ip), vehicle: saline 108 % of control | dose: 400.0 mg/kg/injection, schedule: Q04DX002 (ip), vehicle: saline 122 % of control

CC(C)CCNc1ncnc2[nH]ncc12
inactive: dose: 12.5 mg/kg/injection, schedule: Q01DX009 (ip), vehicle: Klucel (hydroxypropylcellulose) (HPC) 117 % of control | dose: 25.0 mg/kg/injection, schedule: Q01DX009 (ip), vehicle: Klucel (hydroxypropylcellulose) (HPC) 104 % of control | [4] 109 % of control

CCCCCC1CCC(O)CC1 (stereo unspecified)
inactive: [5] 95 % of control | [10] 106 % of control | [6] 90 % of control | [11] 111 % of control | dose: 400.0 mg/kg/injection, schedule: Q01DX009 (ip), vehicle: Klucel (hydroxypropylcellulose) (HPC) 105 % of control | [12] 103 % of control

Cc1cc(C)cc(CCc2cc(C)cc(C)c2)c1
inactive: [1] 95 % of control | [13] 88 % of control | [2] 94 % of control | [15] 95 % of control | [3] 89 % of control | [25] 95 % of control

O=C(Cc1ccccc1)NCCc1ccc(-c2ccccc2)cc1
inactive: [21] 94 % of control | [22] 96 % of control | [23] 86 % of control

Nc1nc(N)c(-c2ccc(Cl)c(Cl)c2)c(C=O)n1
inactive: [7] 107 % of control | [8] 114 % of control | [9] 111 % of control

O=c1[nH][n+]([O-])cc2c(C(O)=C(O)O)c[nH]c12
inactive: dose: 25.0 mg/kg/injection, schedule: Q04DX002 (ip), vehicle: saline with Tween-80 94 % of control | dose: 50.0 mg/kg/injection, schedule: Q04DX002 (ip), vehicle: saline with Tween-80 98 % of control | [14] 105 % of control

C=C1CCC2CCCN2C1=O (stereo unspecified)
inactive: dose: 25.0 mg/kg/injection, schedule: Q01DX001 (ip), vehicle: saline 94 % of control | [20] 97 % of control | [7] 108 % of control | [8] 87 % of control

C1CC[N-]CC1.Oc1ccccc1C=NCCN=Cc1ccccc1O.[CH3-].[Rh+2]
inactive: [24] 109 % of control | [13] 115 % of control | dose: 100.0 mg/kg/injection, schedule: Q04DX003 (ip), vehicle: saline with Tween-80 106 % of control | [15] 91 % of control | dose: 200.0 mg/kg/injection, schedule: Q04DX003 (ip), vehicle: saline with Tween-80 117 % of control
